From PubChem BioAssay AID248 (DTP/NCI, 2004)
Several values for one entry are separate records, joined by “and”; a condition that tells them apart may be missing. Identical values can stand only once. Inconclusive results and toxic doses are left out. Rule as the data show it: active = T/C of 150% or more; inactive = T/C below 125%.

System: L1210 leukemia ip in BDF1 mice, survival T/C
Assay: NCI In Vivo Anticancer Drug Screen. Data for tumor model L1210 Leukemia (intraperitoneal) in B6D2F1 (BDF1) mice
Conditions: endpoint: mean survival time, higher = longer survival
Procedure, shortened: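 In this screen, tumor-bearing mice given compound are compared to those given vehicle, and their survival values are reported as a treated-to-control quotient.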

[1] = dose: 50.0 mg/kg/injection, schedule: Q01DX001 (ip), vehicle: carboxymethylcellulose (CMC)
[2] = dose: 100.0 mg/kg/injection, schedule: Q01DX001 (ip), vehicle: carboxymethylcellulose (CMC)
[3] = dose: 200.0 mg/kg/injection, schedule: Q01DX001 (ip), vehicle: carboxymethylcellulose (CMC)
[4] = dose: 400.0 mg/kg/injection, schedule: Q01DX001 (ip), vehicle: carboxymethylcellulose (CMC)
[5] = dose: 100.0 mg/kg/injection, schedule: Q01DX009 (ip), vehicle: saline with Tween-80
[6] = dose: 100.0 mg/kg/injection, schedule: Q04DX002 (ip), vehicle: saline with Tween-80
[7] = dose: 200.0 mg/kg/injection, schedule: Q01DX009 (ip), vehicle: saline with Tween-80
[8] = dose: 200.0 mg/kg/injection, schedule: Q04DX002 (ip), vehicle: saline with Tween-80
[9] = dose: 400.0 mg/kg/injection, schedule: Q01DX009 (ip), vehicle: saline with Tween-80
[10] = dose: 400.0 mg/kg/injection, schedule: Q04DX002 (ip), vehicle: saline with Tween-80
[11] = dose: 100.0 mg/kg/injection, schedule: Q04DX003 (ip), vehicle: saline with Tween-80
[12] = dose: 200.0 mg/kg/injection, schedule: Q04DX003 (ip), vehicle: saline with Tween-80
[13] = dose: 400.0 mg/kg/injection, schedule: Q04DX003 (ip), vehicle: saline with Tween-80
[14] = dose: 50.0 mg/kg/injection, schedule: Q01DX001 (ip), vehicle: saline
[15] = dose: 100.0 mg/kg/injection, schedule: Q01DX001 (ip), vehicle: saline
[16] = dose: 200.0 mg/kg/injection, schedule: Q01DX001 (ip), vehicle: saline
[17] = dose: 100.0 mg/kg/injection, schedule: Q04DX003 (ip), vehicle: Klucel (hydroxypropylcellulose) (HPC)
[18] = dose: 200.0 mg/kg/injection, schedule: Q04DX003 (ip), vehicle: Klucel (hydroxypropylcellulose) (HPC)
[19] = dose: 400.0 mg/kg/injection, schedule: Q04DX003 (ip), vehicle: Klucel (hydroxypropylcellulose) (HPC)
[20] = dose: 100.0 mg/kg/injection, schedule: Q01DX001 (ip), vehicle: Klucel (hydroxypropylcellulose) (HPC)
[21] = dose: 100.0 mg/kg/injection, schedule: Q01DX009 (ip), vehicle: Klucel (hydroxypropylcellulose) (HPC)

Measured: T/C

COc1cccc(CCO)c1OC
inactive: [1] 88 % of control | [2] 91 % of control | [3] 88 % of control | [4] 98 % of control

CSc1ccc(NC(=S)NC(=O)c2ccc(Cl)cc2Cl)cc1
inactive: [5] 93 % of control and 89 % of control | [6] 90 % of control and 92 % of control | [7] 96 % of control and 88 % of control | [8] 93 % of control and 100 % of control | [9] 96 % of control and 100 % of control | [10] 107 % of control and 90 % of control

CCc1cccc(CC)c1NC(=O)Nc1cc(Cl)ccc1C
inactive: dose: 25.0 mg/kg/injection, schedule: Q04DX003 (ip), vehicle: saline with Tween-80 94 % of control | dose: 50.0 mg/kg/injection, schedule: Q04DX003 (ip), vehicle: saline with Tween-80 105 % of control and 86 % of control | dose: 100.0 mg/kg/injection, schedule: Q01DX001 (ip), vehicle: saline with Tween-80 105 % of control | [5] 97 % of control and 111 % of control | [6] 95 % of control and 103 % of control | [11] 87 % of control and 91 % of control | dose: 200.0 mg/kg/injection, schedule: Q01DX001 (ip), vehicle: saline with Tween-80 90 % of control | [7] 97 % of control and 113 % of control | [8] 103 % of control | [12] 91 % of control | dose: 400.0 mg/kg/injection, schedule: Q01DX001 (ip), vehicle: saline with Tween-80 89 % of control | [9] 94 % of control and 97 % of control | [10] 98 % of control and 89 % of control | [13] 88 % of control

CCCCCCCCC/C(C)=N/NC(=O)c1ccc[n+](C)c1
inactive: dose: 50.0 mg/kg/injection, schedule: Q01DX009 (ip), vehicle: saline 93 % of control | dose: 100.0 mg/kg/injection, schedule: Q01DX009 (ip), vehicle: saline 93 % of control | dose: 200.0 mg/kg/injection, schedule: Q01DX009 (ip), vehicle: saline 96 % of control

O=C(Cl)C1C2C=CC(C2)C1C(=O)Cl (stereo unspecified)
inactive: [14] 108 % of control | [15] 97 % of control

CNC(=N)c1ccc(NC(=N)c2ccc(NC(=O)c3ccc(C(=O)Nc4ccc(C(=N)Nc5ccc(C(=N)NC)cc5)cc4)cc3)cc2)cc1
inactive: dose: 6.25 mg/kg/injection, schedule: Q01DX Z (ip), vehicle: carboxymethylcellulose (CMC) 124 % of control | dose: 100.0 mg/kg/injection, schedule: Q01DX Z (ip), vehicle: carboxymethylcellulose (CMC) 119 % of control

c1ccc2c(c1)ncc1cccn12
inactive: [15] 103 % of control | [16] 103 % of control | dose: 400.0 mg/kg/injection, schedule: Q01DX001 (ip), vehicle: saline 103 % of control

O=Cc1cc([N+](=O)[O-])ccc1OCC(=O)O
inactive: [11] 103 % of control | [12] 92 % of control | [13] 93 % of control

CC1(CO)CC2CCC1C2 (stereo unspecified)
inactive: [17] 104 % of control | [18] 108 % of control | [19] 106 % of control

CC(NS(=O)(=O)Cc1ccccc1)C(=O)O (stereo unspecified)
inactive: dose: 100.0 mg/kg/injection, schedule: Q01DX001 (ip), vehicle: other 96 % of control | dose: 100.0 mg/kg/injection, schedule: Q04DX003 (ip), vehicle: other 107 % of control | dose: 200.0 mg/kg/injection, schedule: Q01DX001 (ip), vehicle: other 95 % of control | dose: 200.0 mg/kg/injection, schedule: Q04DX003 (ip), vehicle: other 96 % of control | dose: 400.0 mg/kg/injection, schedule: Q01DX001 (ip), vehicle: other 104 % of control | dose: 400.0 mg/kg/injection, schedule: Q04DX003 (ip), vehicle: other 106 % of control

Cc1c2c(cc3c1[nH]c1ccccc13)C(c1ccc(Cl)cc1)=NCC2
inactive: [5] 87 % of control | [7] 87 % of control | [9] 88 % of control

O=C1O/C(=C/Br)C=C1Br
inactive: dose: 3.12 mg/kg/injection, schedule: Q04DX003 (ip), vehicle: saline with Tween-80 95 % of control | dose: 6.25 mg/kg/injection, schedule: Q04DX003 (ip), vehicle: saline with Tween-80 92 % of control | dose: 12.5 mg/kg/injection, schedule: Q04DX003 (ip), vehicle: saline with Tween-80 92 % of control | dose: 12.5 mg/kg/injection, schedule: Q04DX003 (ip), vehicle: saline 100 % of control | dose: 25.0 mg/kg/injection, schedule: Q04DX003 (ip), vehicle: saline 97 % of control

CC(=O)C1C(=O)C(=O)OC1C (stereo unspecified)
inactive: dose: 100.0 mg/kg/injection, schedule: Q04DX003 (ip), vehicle: alcohol 94 % of control | dose: 200.0 mg/kg/injection, schedule: Q04DX003 (ip), vehicle: alcohol 96 % of control

CCc1cnc(N)nc1N
inactive: dose: 25.0 mg/kg/injection, schedule: Q01DX009 (ip), vehicle: Klucel (hydroxypropylcellulose) (HPC) 107 % of control | dose: 50.0 mg/kg/injection, schedule: Q01DX009 (ip), vehicle: Klucel (hydroxypropylcellulose) (HPC) 101 % of control | [20] 107 % of control | [21] 104 % of control

BrCC1COc2ccccc2O1 (stereo unspecified)
inactive: [2] 100 % of control | [3] 100 % of control | [4] 91 % of control

O=S1(=O)CCCC1C(Cl)c1ccccc1 (stereo unspecified)
inactive: dose: 50.0 mg/kg/injection, schedule: Q01DX001 (ip), vehicle: Klucel (hydroxypropylcellulose) (HPC) 92 % of control | [20] 97 % of control

Nc1nc(Cl)nc2c1ncn2C1CC(O)C(CO)O1 (stereo unspecified)
inactive: dose: 44.4 mg/kg/injection, schedule: Q01DX001 (ip), vehicle: carboxymethylcellulose (CMC) 118 % of control | [1] 109 % of control | dose: 66.6 mg/kg/injection, schedule: Q01DX001 (ip), vehicle: carboxymethylcellulose (CMC) 112 % of control | [2] 109 % of control and 118 % of control | [3] 120 % of control and 124 % of control | [4] 102 % of control

OCCN1CCN(c2ccccc2)CC1
inactive: dose: 50.0 mg/kg/injection, schedule: Q04DX003 (ip), vehicle: saline 104 % of control | dose: 100.0 mg/kg/injection, schedule: Q04DX003 (ip), vehicle: saline 113 % of control | dose: 200.0 mg/kg/injection, schedule: Q04DX003 (ip), vehicle: saline 102 % of control

C#CCN(C)C(=O)Nc1ccccc1
inactive: [6] 91 % of control | [8] 91 % of control | [10] 113 % of control

Cc1ccc([N+](=O)[O-])c(OC(=O)Nc2ccccc2Cl)c1
inactive: [21] 105 % of control | [17] 100 % of control | dose: 200.0 mg/kg/injection, schedule: Q01DX009 (ip), vehicle: Klucel (hydroxypropylcellulose) (HPC) 100 % of control | [18] 97 % of control | dose: 400.0 mg/kg/injection, schedule: Q01DX009 (ip), vehicle: Klucel (hydroxypropylcellulose) (HPC) 107 % of control | [19] 100 % of control

CCOCCN=Cc1ccccc1O.CCOCCN=Cc1ccccc1O.[Co]
inactive: [14] 100 % of control | [15] 98 % of control | [16] 96 % of control
